Several values for one entry are separate records, joined by “and”; a condition that tells them apart may be missing. Equal entries are not always repeated. Inconclusive results and toxic doses are left out. Cut-off read from the data, not from the text of the source: active = T/C of 150% or more; inactive = T/C below 125%.
Test system: L1210 leukemia ip in BDF1 mice, survival T/C
Assay: NCI In Vivo Anticancer Drug Screen. Data for tumor model L1210 Leukemia (intraperitoneal) in B6D2F1 (BDF1) mice
Conditions: endpoint: mean survival time, higher = longer survival
Procedure, shortened: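 In this screen, tumor-bearing mice given compound are compared to those given vehicle, and their survival values are reported as a treated-to-control quotient.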

[1] = dose: 100.0 mg/kg/injection, schedule: Q04DX003 (ip), vehicle: saline with Tween-80
[2] = dose: 200.0 mg/kg/injection, schedule: Q04DX003 (ip), vehicle: saline with Tween-80
[3] = dose: 100.0 mg/kg/injection, schedule: Q01DX001 (ip), vehicle: saline
[4] = dose: 200.0 mg/kg/injection, schedule: Q01DX001 (ip), vehicle: saline
[5] = dose: 50.0 mg/kg/injection, schedule: Q01DX009 (ip), vehicle: saline
[6] = dose: 25.0 mg/kg/injection, schedule: Q04DX003 (ip), vehicle: saline
[7] = dose: 50.0 mg/kg/injection, schedule: Q04DX003 (ip), vehicle: saline
[8] = dose: 100.0 mg/kg/injection, schedule: Q01DX009 (ip), vehicle: saline
[9] = dose: 200.0 mg/kg/injection, schedule: Q01DX009 (ip), vehicle: saline
[10] = dose: 100.0 mg/kg/injection, schedule: Q04DX003 (ip), vehicle: Klucel (hydroxypropylcellulose) (HPC)
[11] = dose: 200.0 mg/kg/injection, schedule: Q04DX003 (ip), vehicle: Klucel (hydroxypropylcellulose) (HPC)
[12] = dose: 400.0 mg/kg/injection, schedule: Q04DX003 (ip), vehicle: Klucel (hydroxypropylcellulose) (HPC)
[13] = dose: 25.0 mg/kg/injection, schedule: Q01DX009 (ip), vehicle: other
[14] = dose: 50.0 mg/kg/injection, schedule: Q01DX009 (ip), vehicle: other
[15] = dose: 100.0 mg/kg/injection, schedule: Q01DX009 (ip), vehicle: other
[16] = dose: 50.0 mg/kg/injection, schedule: Q04DX002 (ip), vehicle: Klucel (hydroxypropylcellulose) (HPC)
[17] = dose: 100.0 mg/kg/injection, schedule: Q04DX002 (ip), vehicle: Klucel (hydroxypropylcellulose) (HPC)
[18] = dose: 100.0 mg/kg/injection, schedule: Q04DX003 (ip), vehicle: saline
[19] = dose: 200.0 mg/kg/injection, schedule: Q04DX003 (ip), vehicle: saline

Measured: T/C

c1ccc2sc(SN3CCOCC3)nc2c1
inactive: dose: 100.0 mg/kg/injection, schedule: Q01DX009 (ip), vehicle: saline with Tween-80 95 % of control | [1] 100 % of control | dose: 200.0 mg/kg/injection, schedule: Q01DX009 (ip), vehicle: saline with Tween-80 92 % of control | [2] 87 % of control | dose: 400.0 mg/kg/injection, schedule: Q01DX009 (ip), vehicle: saline with Tween-80 92 % of control | dose: 400.0 mg/kg/injection, schedule: Q04DX003 (ip), vehicle: saline with Tween-80 89 % of control

CCOC(=O)C1=NN(c2ccccc2)C(=O)C1N=Nc1ccc(S(=O)(=O)Nc2nccc(C)n2)cc1 (stereo unspecified)
inactive: [3] 95 % of control | [4] 101 % of control | dose: 400.0 mg/kg/injection, schedule: Q01DX001 (ip), vehicle: saline 102 % of control

CC1(C)OC(=O)C2CCCCC21 (stereo unspecified)
inactive: dose: 25.0 mg/kg/injection, schedule: Q01DX009 (ip), vehicle: saline 89 % of control | [5] 93 % of control | [3] 97 % of control | [4] 90 % of control

O=C(C[n+]1cccc(CO)c1)c1ccccc1
inactive: dose: 12.5 mg/kg/injection, schedule: Q04DX003 (ip), vehicle: saline 102 % of control | [6] 103 % of control | [7] 100 % of control

CC1=CC(O)C(C(C)C)C1 (stereo unspecified)
inactive: dose: 100.0 mg/kg/injection, schedule: Q01DX001 (ip), vehicle: other 102 % of control | dose: 200.0 mg/kg/injection, schedule: Q01DX001 (ip), vehicle: other 98 % of control | dose: 400.0 mg/kg/injection, schedule: Q01DX001 (ip), vehicle: other 98 % of control

COP(=O)(O)Oc1ccccc1
inactive: dose: 87.5 mg/kg/injection, schedule: Q01DX009 (ip), vehicle: saline with Tween-80 100 % of control | dose: 175.0 mg/kg/injection, schedule: Q01DX009 (ip), vehicle: saline with Tween-80 100 % of control

NCc1cc([N+](=O)[O-])ccc1Cl
inactive: [5] 101 % of control | [8] 95 % of control | [1] 92 % of control | [9] 97 % of control | [2] 103 % of control

CCOc1cccc2c1OC(CN1CCC3(CC1)C(=O)NCN3c1ccccc1)CO2 (stereo unspecified)
inactive: [10] 116 % of control | [11] 115 % of control | [12] 115 % of control

O=C(NCc1ccc(S(=O)(=O)F)cc1)Oc1ccc([N+](=O)[O-])cc1
inactive: [13] 100 % of control | [14] 88 % of control | [15] 98 % of control and 87 % of control

N#C/C(=C\c1ccccc1Cl)c1cccc(Cl)c1
inactive: [13] 107 % of control | [14] 96 % of control | [15] 93 % of control and 90 % of control

CCCCCc1c(CCC)[nH]c(=O)[nH]c1=O
inactive: dose: 100.0 mg/kg/injection, schedule: Q01DX001 (ip), vehicle: Klucel (hydroxypropylcellulose) (HPC) 105 % of control | dose: 200.0 mg/kg/injection, schedule: Q01DX001 (ip), vehicle: Klucel (hydroxypropylcellulose) (HPC) 106 % of control | dose: 400.0 mg/kg/injection, schedule: Q01DX001 (ip), vehicle: Klucel (hydroxypropylcellulose) (HPC) 90 % of control

C=CCN1C(=O)C2C3C=CC(C3)C2C1=O (stereo unspecified)
inactive: dose: 6.0 mg/kg/injection, schedule: Q04DX002 (ip), vehicle: Klucel (hydroxypropylcellulose) (HPC) 114 % of control | dose: 25.0 mg/kg/injection, schedule: Q04DX002 (ip), vehicle: Klucel (hydroxypropylcellulose) (HPC) 114 % of control | [16] 117 % of control | [17] 97 % of control

CCOC(=O)CC1c2nc3ccccc3cc2CN1C(=O)OCC (stereo unspecified)
inactive: [10] 100 % of control | [11] 102 % of control | [12] 103 % of control

C(=Nc1ccccc1)c1ccccc1
inactive: dose: 50.0 mg/kg/injection, schedule: Q01DX001 (ip), vehicle: carboxymethylcellulose (CMC) 98 % of control | dose: 100.0 mg/kg/injection, schedule: Q01DX001 (ip), vehicle: carboxymethylcellulose (CMC) 96 % of control | [8] 98 % of control | [18] 104 % of control | dose: 200.0 mg/kg/injection, schedule: Q01DX001 (ip), vehicle: carboxymethylcellulose (CMC) 91 % of control | [9] 100 % of control | [19] 105 % of control | dose: 400.0 mg/kg/injection, schedule: Q01DX001 (ip), vehicle: carboxymethylcellulose (CMC) 91 % of control

COC(=O)/C(C)=C/CC(C)C(=O)OC (stereo unspecified)
inactive: dose: 50.0 mg/kg/injection, schedule: Q01DX001 (ip), vehicle: saline 102 % of control | [3] 96 % of control | [4] 105 % of control

CCCCCCCOC(C[N+](=O)[O-])C(Cl)(Cl)Cl (stereo unspecified)
inactive: dose: 25.0 mg/kg/injection, schedule: Q01DX009 (ip), vehicle: acetone 95 % of control | dose: 50.0 mg/kg/injection, schedule: Q01DX009 (ip), vehicle: acetone 93 % of control | dose: 100.0 mg/kg/injection, schedule: Q04DX003 (ip), vehicle: acetone 99 % of control

CN(CC(=O)O)Cc1ccccc1
inactive: [8] 93 % of control | [18] 104 % of control | [9] 88 % of control | [19] 109 % of control | dose: 400.0 mg/kg/injection, schedule: Q01DX009 (ip), vehicle: saline 93 % of control | dose: 400.0 mg/kg/injection, schedule: Q04DX003 (ip), vehicle: saline 102 % of control

COc1c(CO)cc(C)cc1CO
inactive: dose: 87.5 mg/kg/injection, schedule: Q04DX003 (ip), vehicle: saline with Tween-80 101 % of control | dose: 175.0 mg/kg/injection, schedule: Q04DX003 (ip), vehicle: saline with Tween-80 124 % of control | dose: 350.0 mg/kg/injection, schedule: Q04DX003 (ip), vehicle: saline with Tween-80 101 % of control

O=CNc1ccc(Cl)cc1
inactive: dose: 25.0 mg/kg/injection, schedule: Q04DX003 (ip), vehicle: Klucel (hydroxypropylcellulose) (HPC) 92 % of control | dose: 50.0 mg/kg/injection, schedule: Q04DX003 (ip), vehicle: Klucel (hydroxypropylcellulose) (HPC) 92 % of control | [10] 87 % of control | [11] 97 % of control

S=C(Nc1ccc(Cl)c(Cl)c1)SCc1ccc(Cl)cc1
inactive: [6] 104 % of control | [7] 101 % of control | [18] 104 % of control

CCOC(=O)Cc1nc2ccccc2[nH]c1=O
inactive: [16] 107 % of control | [17] 96 % of control | dose: 200.0 mg/kg/injection, schedule: Q04DX002 (ip), vehicle: Klucel (hydroxypropylcellulose) (HPC) 96 % of control

O=C(/C=C/C(=O)Oc1c(Cl)c(Cl)c(Cl)c(Cl)c1Cl)Oc1c(Cl)c(Cl)c(Cl)c(Cl)c1Cl
inactive: dose: 100.0 mg/kg/injection, schedule: Q01DX009 (ip), vehicle: Klucel (hydroxypropylcellulose) (HPC) 100 % of control | [10] 111 % of control | dose: 200.0 mg/kg/injection, schedule: Q01DX009 (ip), vehicle: Klucel (hydroxypropylcellulose) (HPC) 104 % of control | [11] 93 % of control | dose: 400.0 mg/kg/injection, schedule: Q01DX009 (ip), vehicle: Klucel (hydroxypropylcellulose) (HPC) 100 % of control | [12] 105 % of control

c1cc[c]([Pb]([c]2ccccc2)([c]2ccccc2)[n]2ccnc2)cc1
inactive: dose: 5.0 mg/kg/injection, schedule: Q01DX001 (ip), vehicle: other 106 % of control | dose: 10.0 mg/kg/injection, schedule: Q01DX001 (ip), vehicle: other 98 % of control

Reference: PubChem BioAssay AID248 (DTP/NCI, 2004)
